From patent publication US20250325534A1, “MICROBIOCIDAL TETRAHYDROISOQUINOLINE DERIVATIVES” (SYNGENTA CROP PROTECTION AG, priority 2021, published 2025)

Legend:
[1] = tested on: Mycosphaerella graminicola; experiment: Mycosphaerella graminicola (Septoria tritici) / liquid culture (Septoria blotch); type: cell-based; details: Zymoseptoria tritici, 96 h, photometrically 4-5 days after application, read-out: control of Mycosphaerella graminicola
Procedure, shortened: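 Conidia from cryogenic storage mixed into potato dextrose broth, added to test compound in DMSO. Plates incubated at 24° C; growth inhibition read photometrically 4-5 days after application.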

Pyrenophora teres = Pyrenophora teres / barley / leaf disc preventative (net blotch); type: in vivo; details: foliar, inoculated 2 days after application
Procedure, shortened: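 Barley cv. Hasso leaf segments on agar sprayed with formulated compound in water, then inoculated with spore suspension 2 days later. Incubated at 20° C., 65% RH, 12 h light/12 h dark; disease control versus untreated assessed 5-7 days after application.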

Phaeosphaeria nodorum = Phaeosphaeria nodorum (Septoria nodorum) / wheat / leaf disc preventative (glume blotch); type: in vivo; details: Parastagonospora nodorum, foliar, inoculated 2 days after application
Procedure, shortened: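 Wheat leaf discs (cv. Kanzler) on agar were sprayed with formulated compound diluted in water, then inoculated with spores 2 days later. Incubation was at 20 °C and 75% relative humidity under 12 h light/12 h dark. Percent disease control versus untreated was scored 5–7 days after application.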

Glomerella lagenarium = Glomerella lagenarium (Colletotrichum lagenarium) / liquid culture (anthracnose); type: cell-based; details: Colletotrichum orbiculare, 72 h, photometrically 3-4 days after application, read-out: control of Glomerella lagenarium
Procedure, shortened: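 Conidia in potato dextrose broth added to test compound delivered as DMSO solution in microtiter plates; incubation at 24° C. Growth inhibition read photometrically 3-4 days after application.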

Alternaria solani = Alternaria solani / tomato / leaf disc (early blight); type: in vivo; details: foliar, inoculated 2 days after application, vs untreated control
Monographella nivalis = Monographella nivalis (Microdochium nivale) / liquid culture (foot rot cereals); type: cell-based; details: 96 h, photometrically 4-5 days after application, read-out: control of Monographella nivalis
Procedure, shortened: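 Microdochium nivale conidia in potato dextrose broth were added to test compound in DMSO and incubated at 24° C. Growth inhibition was measured photometrically 4-5 days after application.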

Mycosphaerella arachidis = Mycosphaerella arachidis (Cercospora arachidicola) / liquid culture (early leaf spot); type: cell-based; details: 96 h, photometrically 4-5 days after application, read-out: control of Mycosphaerella arachidis
Procedure, shortened: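 Cryostored M. arachidis conidia in potato dextrose broth were added to compound applied as DMSO solution. Incubated at 24 °C; growth inhibition measured photometrically 4-5 days after application.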

Sclerotinia sclerotiorum = Sclerotinia sclerotiorum / liquid culture (cottony rot); type: cell-based; details: 72 h, photometrically 3-4 days after application, read-out: control of Sclerotinia sclerotiorum
Experimental: Example B18: Sclerotinia sclerotiorum/Liquid Culture (Cottony Rot) Mycelia fragments of a newly grown liquid culture of the fungus are directly mixed into a nutrient broth (potato dextrose broth). After placing a DMSO solution of test compound into a microtiter plate (96-well format) the nutrient broth containing the fungal material is added. The test plates are incubated at 24° C. and the inhibition of growth is determined photometrically 3-4 days after application.

Botryotinia fuckeliana = Botryotinia fuckeliana (Botrytis cinerea) / liquid culture (gray mould); type: cell-based; details: 72 h, growth inhibition photometrically 3-4 days after application, read-out: control of Botryotinia fuckeliana
Procedure, shortened: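 Botrytis cinerea conidia in Vogels nutrient broth added to test compound delivered in DMSO. Incubated at 24 °C; growth inhibition measured photometrically 3–4 days after application.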

fungi = experiment: Fungicidal activity of separated stereoisomers compared (test not specified); details: comparison of SFC-separated isomers; test and fungus not given
Fusarium culmorum = experiment: microbe, parasite or virus in culture; type: cell-based; details: 72 h, read-out: control of Fusarium culmorum
[2] = tested on: Blumeria graminis f. sp. tritici; experiment: Blumeria graminis f. sp. tritici / wheat / leaf disc preventative (powdery mildew); type: in vivo; details: foliar, inoculated 1 day after application
Experimental: Example B7: Blumeria graminis f. Sp. Tritici (Erysiphe graminis f. Sp. Tritici)/Wheat/Leaf Disc Preventative (Powdery Mildew on Wheat) Wheat leaf segments cv. Kanzler are placed on agar in a multiwell plate (24-well format) and sprayed with the formulated test compound diluted in water. The leaf disks are inoculated by shaking powdery mildew infected plants above the test plates 1 day after application. The inoculated leaf disks are incubated at 20° C. and 60% relative humidity under a light regime of 24 h darkness followed by 12 h light/12 h darkness in a climate chamber and the activity of a compound is assessed as percent disease control compared to untreated when an appropriate level of disease damage appears on untreated check leaf segments (6-8 days after application).

| Structure (SMILES) | inhibition of growth at 20 ppm [1] [%] | pest or weed control at 200 ppm (Pyrenophora teres) [%] | pest or weed control at 200 ppm (Phaeosphaeria nodorum) [%] | inhibition of growth at 20 ppm (Glomerella lagenarium) [%] | pest or weed control at 200 ppm (Alternaria solani) [%] | inhibition of growth at 20 ppm (Monographella nivalis) [%] | inhibition of growth at 20 ppm (Mycosphaerella arachidis) [%] | inhibition of growth at 20 ppm (Sclerotinia sclerotiorum) [%] | inhibition of growth at 20 ppm (Botryotinia fuckeliana) [%] | fungicidal activity relative to its stereoisomer (fungi) | inhibition of growth at 20 ppm (Fusarium culmorum) [%] | pest or weed control at 200 ppm [2] [%] |
| --- | --- | --- | --- | --- | --- | --- | --- | --- | --- | --- | --- | --- |
| Cn1cc([C@@]2(C)CN(C(=O)c3cc(-c4ccc(F)cc4F)on3)Cc3ccccc32)cn1 (single isomer, unassigned) [Compound P-48] | ≥ 80 | ≥ 80 | ≥ 80 | ≥ 80 | ≥ 80 | ≥ 80 | ≥ 80 | ≥ 80 | ≥ 80 | more fungicidally active than the (R) isomer |  |  |
| Cc1c(C2CN(C(=O)c3nnc(-c4ccc(F)cc4F)s3)Cc3ccccc32)cnn1C (stereo not drawn) [Compound P-65, [5-(2,4-difluorophenyl)-1,3,4-thiadiazol-2-yl]-[4-(1,5-dimethylpyrazol-4-yl)-3,4-dihydro-1H-isoquinolin-2-yl]methanone] | ≥ 80 | ≥ 80 | ≥ 80 | ≥ 80 | ≥ 80 | ≥ 80 | ≥ 80 | ≥ 80 | ≥ 80 |  | ≥ 80 | ≥ 80 |
| Cc1c(C2CN(C(=O)c3cc(-c4ccc(F)cc4F)no3)Cc3ccccc32)cnn1C (stereo not drawn) [Compound P-108, [3-(2,4-difluorophenyl)isoxazol-5-yl]-[4-(1,5-dimethylpyrazol-4-yl)-3,4-dihydro-1H-isoquinolin-2-yl]methanone] | ≥ 80 | ≥ 80 | ≥ 80 | ≥ 80 | ≥ 80 | ≥ 80 | ≥ 80 |  | ≥ 80 |  | ≥ 80 | ≥ 80 |
| C[C@H]1c2ccccc2[C@@](C)(c2cnn(C)c2)CN1C(=O)c1cc(-c2ccc(F)cc2F)on1 (single isomer, unassigned) [Compound P-6] | ≥ 80 | ≥ 80 | ≥ 80 | ≥ 80 | ≥ 80 | ≥ 80 | ≥ 80 |  | ≥ 80 | more fungicidally active than the compound of peak 3 |  |  |
| Cn1ncc(C2CN(C(=O)c3nnc(-c4ccc(F)cc4F)s3)Cc3ccccc32)c1Cl (stereo not drawn) [Compound P-212, [4-(5-chloro-1-methyl-pyrazol-4-yl)-3,4-dihydro-1H-isoquinolin-2-yl]-[5-(2,4-difluorophenyl)-1,3,4-thiadiazol-2-yl]methanone] | ≥ 80 |  |  | ≥ 80 |  | ≥ 80 | ≥ 80 | ≥ 80 | ≥ 80 |  | ≥ 80 |  |
| Cc1c(C2CN(C(=O)c3cc(-c4ccc(F)cc4F)on3)Cc3ccccc32)cnn1C (single isomer, unassigned) [Compound P-223, [5-(2,4-difluorophenyl)isoxazol-3-yl]-[4-(1,5-dimethylpyrazol-4-yl)-3,4-dihydro-1H-isoquinolin-2-yl]methanone] | ≥ 80 |  |  | ≥ 80 |  | ≥ 80 | ≥ 80 | ≥ 80 | ≥ 80 |  | ≥ 80 |  |
| C[C@@H]1c2ccccc2[C@@](C)(c2cnn(C)c2)CN1C(=O)c1cc(-c2ccc(F)cc2F)on1 (single isomer, unassigned) [Compound P-9] | ≥ 80 |  |  |  |  | ≥ 80 |  |  |  | more fungicidally active than the compound of peak 2 |  |  |
